{
  "source": "patent US8460687B1",
  "about": "“Peeling compositions” (Cosmoceutical Research Center, priority 2009, dated 2013)",
  "origin": "cited, not measured here",
  "note": "Like-named read-outs stand apart in the source and are kept apart here.",
  "data": [
    {"smiles": "O=P(O)(O)O[C@H]1[C@H](OP(=O)(O)O)[C@@H](OP(=O)(O)O)[C@H](OP(=O)(O)O)[C@@H](OP(=O)(O)O)[C@H]1OP(=O)(O)O", "note": "[Phytic acid, inisitol hexakisphosphate]", "values": [
      {"measurement": "pH of aqueous solution", "setting": "0.66 g/l", "value": 2.68},
      {"measurement": "pH of aqueous solution", "setting": "66 g/l", "value": 0.9}
    ]}
  ]
}
